Measurements: publication PMC4790851, “Iminosugars Inhibit Dengue Virus Production via Inhibition of ER Alpha-Glucosidases—Not Glycolipid Processing Enzymes” (PLoS Neglected Tropical Diseases, 2016)

Columns and labels:
[1] = test system: monosialodihexosylganglioside (GM3) production; assay: Glycosphingolipid analysis: GM3 levels in MDMΦs by NP-HPLC; assay type: cell-based, human; conditions: 48 h; for GM3 production (%): uninfected MDMΦ, normalized to untreated controls, mean ± SD, min. 3 donors
[2] = target: Human lysosome α-glucosidase (Homo sapiens, UniProt P10253); assay: In vitro enzyme inhibition; assay type: biochemical; conditions: concentration required to inhibit the enzyme to 50% activity; read-out: IC50
Rat intestinal sucrase = target: T1, Rat intestinal sucrase (Rattus norvegicus, UniProt P23739); assay: In vitro enzyme inhibition, glucose release from disaccharide; assay type: biochemical; conditions: concentration required to inhibit the enzyme to 50% activity; read-out: IC50
T1 construct: from tissue; host or cells: rat intestine
T1 sequence (P23739 whole entry): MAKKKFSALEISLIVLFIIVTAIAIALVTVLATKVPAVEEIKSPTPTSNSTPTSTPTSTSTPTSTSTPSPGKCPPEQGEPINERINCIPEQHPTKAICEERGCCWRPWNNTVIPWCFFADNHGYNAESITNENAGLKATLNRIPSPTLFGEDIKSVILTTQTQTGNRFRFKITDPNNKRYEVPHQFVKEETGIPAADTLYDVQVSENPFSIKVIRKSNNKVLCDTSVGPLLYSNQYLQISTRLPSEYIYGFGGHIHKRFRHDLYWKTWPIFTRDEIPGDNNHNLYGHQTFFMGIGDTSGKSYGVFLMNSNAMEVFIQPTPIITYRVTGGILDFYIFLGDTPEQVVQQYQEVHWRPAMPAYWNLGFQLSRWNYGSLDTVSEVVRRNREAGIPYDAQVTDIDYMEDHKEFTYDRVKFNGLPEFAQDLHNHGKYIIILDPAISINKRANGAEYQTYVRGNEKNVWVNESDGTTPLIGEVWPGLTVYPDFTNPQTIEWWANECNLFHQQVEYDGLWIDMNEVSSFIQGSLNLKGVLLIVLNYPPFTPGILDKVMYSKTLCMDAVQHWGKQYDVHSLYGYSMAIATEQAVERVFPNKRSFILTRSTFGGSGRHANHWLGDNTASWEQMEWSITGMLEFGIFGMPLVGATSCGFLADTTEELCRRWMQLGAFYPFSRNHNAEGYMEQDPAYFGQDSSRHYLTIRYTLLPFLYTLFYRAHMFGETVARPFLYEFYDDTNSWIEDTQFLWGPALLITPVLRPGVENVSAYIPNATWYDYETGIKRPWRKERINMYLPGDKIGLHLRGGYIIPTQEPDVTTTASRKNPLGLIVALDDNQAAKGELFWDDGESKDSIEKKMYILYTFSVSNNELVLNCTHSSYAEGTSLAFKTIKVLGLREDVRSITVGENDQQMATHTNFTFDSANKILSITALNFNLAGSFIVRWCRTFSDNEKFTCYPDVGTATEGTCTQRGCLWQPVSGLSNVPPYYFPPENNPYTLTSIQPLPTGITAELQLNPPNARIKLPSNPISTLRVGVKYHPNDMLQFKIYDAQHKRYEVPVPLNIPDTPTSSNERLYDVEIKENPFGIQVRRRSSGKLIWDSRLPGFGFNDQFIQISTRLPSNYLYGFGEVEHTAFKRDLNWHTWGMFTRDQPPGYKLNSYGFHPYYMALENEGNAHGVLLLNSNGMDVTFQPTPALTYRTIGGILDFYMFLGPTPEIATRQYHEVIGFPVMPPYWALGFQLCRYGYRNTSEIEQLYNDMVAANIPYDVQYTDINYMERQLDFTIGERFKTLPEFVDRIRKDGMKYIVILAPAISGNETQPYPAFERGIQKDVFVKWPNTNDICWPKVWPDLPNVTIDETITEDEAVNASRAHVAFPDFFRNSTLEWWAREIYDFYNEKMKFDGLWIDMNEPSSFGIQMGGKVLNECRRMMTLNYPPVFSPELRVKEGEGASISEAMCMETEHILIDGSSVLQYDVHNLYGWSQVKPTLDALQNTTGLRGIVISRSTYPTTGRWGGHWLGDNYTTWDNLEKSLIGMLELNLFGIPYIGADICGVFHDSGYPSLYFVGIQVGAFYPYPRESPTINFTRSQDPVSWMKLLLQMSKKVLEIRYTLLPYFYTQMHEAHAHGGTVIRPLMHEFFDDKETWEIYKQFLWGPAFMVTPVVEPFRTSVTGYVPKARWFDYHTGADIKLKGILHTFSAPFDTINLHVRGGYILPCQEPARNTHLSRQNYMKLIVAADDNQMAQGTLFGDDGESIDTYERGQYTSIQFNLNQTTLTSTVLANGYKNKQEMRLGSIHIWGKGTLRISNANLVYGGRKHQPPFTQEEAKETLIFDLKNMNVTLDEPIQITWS

Rat intestinal maltase = assay: as above; assay type: biochemical; conditions: concentration required to inhibit the enzyme to 50% activity
Experimental: Inhibition of glucosidases and glycosidases was detected as previously described. Briefly, assays were performed at the optimum pH of each enzyme, and appropriate disaccharide was provided as substrate for glucosidase release assays. Release of D-glucose was measured using a Glucose B-test (Wako Diagnostics). Appropriate p-nitrophenyl glycoside was added as substrate for additional glycosidase assays, and assays were stopped by adding 400 mM Na2CO3. Release of p-nitrophenol was measured spectrophotometrically at 400 nm.

[3] = target: T2, Rat intestinal isomaltase (Rattus norvegicus, UniProt P23739); assay: as above; assay type: biochemical; conditions: concentration required to inhibit the enzyme to 50% activity; read-out: IC50
T2 construct: from tissue; host or cells: rat intestine
T2 sequence (P23739 whole entry): as above

ER α-glucosidase I = target: T3, ER α-glucosidase I (Homo sapiens, UniProt Q13724); assay: Free oligosaccharide analysis in MDMΦs: Glc3Man5GlcNAc1; assay type: cell-based; conditions: 48 h; for accumulation of Glc3Man5GlcNAc1: MDMΦs; for FOS representative of ER α-glucosidase I inhibition (Glc3Man5GlcNAc1): MNTD of iminosugar (NB-DNJ 100 μM), uninfected MDMΦs
T3 construct: endogenous in cells; host or cells: primary human monocyte-derived macrophages (MDMΦ)
T3 sequence (Q13724 1-837): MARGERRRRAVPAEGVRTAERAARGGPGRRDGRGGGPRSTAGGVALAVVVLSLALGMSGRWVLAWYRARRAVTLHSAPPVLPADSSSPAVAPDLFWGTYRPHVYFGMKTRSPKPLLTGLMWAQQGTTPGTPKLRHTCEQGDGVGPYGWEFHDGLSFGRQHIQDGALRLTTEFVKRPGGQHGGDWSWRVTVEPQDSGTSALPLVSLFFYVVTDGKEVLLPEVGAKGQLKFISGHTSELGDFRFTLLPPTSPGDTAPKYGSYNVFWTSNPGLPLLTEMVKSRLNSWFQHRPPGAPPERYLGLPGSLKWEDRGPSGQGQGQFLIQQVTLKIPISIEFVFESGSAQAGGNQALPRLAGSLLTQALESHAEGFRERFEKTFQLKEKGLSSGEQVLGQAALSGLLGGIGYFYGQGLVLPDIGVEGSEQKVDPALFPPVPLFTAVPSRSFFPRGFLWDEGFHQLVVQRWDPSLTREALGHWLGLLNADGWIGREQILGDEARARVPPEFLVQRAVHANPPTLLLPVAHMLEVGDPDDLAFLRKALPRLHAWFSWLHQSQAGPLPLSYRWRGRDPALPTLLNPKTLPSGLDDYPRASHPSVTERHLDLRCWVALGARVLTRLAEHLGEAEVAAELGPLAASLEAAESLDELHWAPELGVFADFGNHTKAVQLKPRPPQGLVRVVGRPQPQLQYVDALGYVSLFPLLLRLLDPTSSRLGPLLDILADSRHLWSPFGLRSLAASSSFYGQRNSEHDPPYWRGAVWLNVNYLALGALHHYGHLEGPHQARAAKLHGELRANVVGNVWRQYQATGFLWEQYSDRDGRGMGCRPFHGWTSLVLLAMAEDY
Experimental: MDMΦ were infected with DENV2 16681 diluted to a multiplicity of infection (MOI) of 1 in X-VIVO10 without supplements for 90 minutes (20°C, with rocking). Upon removal of virus, fresh MDMΦ growth medium without IL-4 but containing serial dilutions of drug or control was placed on the cells, and cells were incubated for 48 hours (37°C, 5% CO2). For collection of infectious virus, supernatant was harvested and centrifuged for 5 minutes (room temperature, 400 x g) to pellet any cells/debris, and supernatants were aliquoted and stored at -80°C until analysis by plaque assay. In the case of FOS and GSL assays where MDMΦ were uninfected, treatments were essentially as above except that no virus was added and cells were washed three times with sterile PBS after 24 or 48 hours as per sample time point. On the third wash, cells were removed from tissue culture plastic by mechanical disruption (scraping) and transferred to microcentrifuge tubes for centrifugation (room temperature, 4000 x g, 5 minutes). Cells were lysed by three cycles of freeze-thawing (alternating room temperature and –80°C) in deionised H2O and stored at –80°C for subsequent protein, FOS, or GSL assay.
MDMΦ FOS were detected as previously described by Alonzi et al.. Cells were cultured in 6-well plates as described above, and protein lysates were prepared according to the freeze/thaw protocol. Following cell lysis, samples were subjected to mixed-bed ion exchange and then lyophilised. FOS were labelled with 2-aminobenzoic acid (2-AA) and purified using a DPA-6S column (Sigma). Unconjugated 2-AA was removed by phase splitting with ethyl acetate, and samples were lyophilised and resuspended in water and then purified using a con-A column. Glycans were separated by normal phase-high performance liquid chromatography (NP-HPLC), and peak area was used to assess molar quantity in comparison to standards of known identity and quantity. FOS generation was normalised to protein concentration based on a modified Bradford assay as previously described. Briefly, cell lysates were added in a 1:1 volumetric ratio to 1x Bradford Quick Start Reagent (Bio-Rad) and incubated at 20°C for 5 minutes. Absorbance values (Axxx) at 595 nm and 420 nm were measured, and the ratio of A595 to A420 was used to determine protein concentration in comparison to a serially diluted standard of bovine serum albumin.

MDMΦs = assay: Cytotoxicity, MTS cell proliferation assay; assay type: cell-based, human
Experimental: Cytotoxicity of compounds was assessed by a cell proliferation assay for metabolic activity using a CellTiter 96 AQueous One Solution Cell Proliferation Assay (Promega) as per the manufacturer’s instructions. Briefly, 20 μl of a solution containing tetrazolium compound [3-(4,5-[…])-5-(3-carboxymethoxyphenyl)-2-(4-sulfophenyl)-2H-tetrazolium; MTS] and electron coupling reagent (phenazine ethosulfate) was added to cells covered or suspended in 100 μl of culture medium in a 96-well plate. Samples were incubated for approximately 4 hours (37°C, 5% CO2), and the absorbance at 490 nm (A490) was measured on a SpectraMax M5 microplate reader (Molecular Devices).

SMILES | GM3 production (%) ([1]; 100 μM (MNTD)) | IC50 [2] [µM] | IC50 (Rat intestinal sucrase) [µM] | IC50 (Rat intestinal maltase) [µM] | IC50 [3] [µM] | accumulation of Glc3Man5GlcNAc1 (ER α-glucosidase I; 1 μM, all donors) | accumulation of Glc3Man5GlcNAc1 (ER α-glucosidase I; 31.6 and 100 μM) | MNTD (maximum non-toxic dose tested) (MDMΦs) [µM] | FOS representative of ER α-glucosidase I inhibition (Glc3Man5GlcNAc1) (ER α-glucosidase I) | concentration up to which cytotoxicity was not detected (MDMΦs) [µM] | inhibition at 10 µM ([1]; Homo sapiens, 10 μM, MDMΦs) [%] | EC50 ([1]; Homo sapiens, titration 1 to 100 μM, three donors, read-out: 95% CI for GM3 EC50) [µM] | GM3 production (%) ([1]; 31.6 μM (MNTD))
CCCC(=O)O[C@H]1CN2CC[C@H](O)[C@@H]2[C@@H](O)[C@@H]1O [Celgosivir, 6-O-butanoyl-castanospermine] | 100.9 ± 4.1 | 93.2 | 2.7 | 17 | 29.3 | not Glc3Man5GlcNAc1 | increasing accumulation of Glc3Man5GlcNAc1 | 100 |  |  |  |  | 
CCCCN1C[C@H](O)[C@@H](O)[C@@H](O)[C@H]1CO [NB-DGJ] | 7.3 ± 1.9 | > 1000 | > 1000 | > 1000 | > 1000 |  |  | 100 | fail to produce detectable ER α-glucosidase associated FOS | > 100 |  |  | 
CCCCN1C[C@H](O)[C@@H](O)[C@H](O)[C@H]1CO [NB-DNJ, N-butyl-DNJ] | 8.8 ± 3.6 | 0.27 | 0.44 | 1.1 |  | not Glc3Man5GlcNAc1 |  | 100 | accumulation of peaks representative of inhibition of both α-glucosidases |  | 90 to 95 | 0.8 to 1.37 | 
CCCCCCCCCN1C[C@H](O)[C@@H](O)[C@@H](O)[C@H]1CO [NN-DGJ] |  | > 1000 | > 1000 | > 1000 | > 1000 |  |  | 31.6 | fail to produce detectable ER α-glucosidase associated FOS |  |  |  | 4.9 ± 1.9
